Results taken from ChEMBL document CHEMBL3885881, “DrugMatrix”.

Species on record: Rattus norvegicus
Assay: DrugMatrix - Regimen: Daily Repeat
Type: toxicity, organism-based, Sprague-Dawley
Design: regimen Daily Repeat, gender Male, age 6-8 weeks
Conditions: in vivo, po, route oral GAVAGE, […]; for ABSOLUTE BASOPHIL / ABSOLUTE EOSINOPHIL / ABSOLUTE LYMPHOCYTE / ABSOLUTE MONOCYTE / ABSOLUTE SEGMENTED NEUTROPHIL / BASOPHIL / EOSINOPHIL / ERYTHROCYTE COUNT / HEMATOCRIT / HEMOGLOBIN / LEUKOCYTE COUNT / LYMPHOCYTE / MEAN CORPUSCULAR HEMOGLOBIN / MEAN CORPUSCULAR HEMOGLOBIN CONCENTRATION / MEAN CORPUSCULAR VOLUME / MONOCYTE / NEUTROPHIL / NUCLEATED RED BLOOD CELLS / PLATELET COUNT: tissue Blood; for ALANINE AMINOTRANSFERASE / ALBUMIN / ALKALINE PHOSPHATASE / ASPARTATE AMINOTRANSFERASE / BLOOD UREA NITROGEN / CARBON DIOXIDE / CHLORIDE / CHOLESTEROL / CREATINE PHOSPHOKINASE / CREATININE / GLUCOSE / LACTATE DEHYDROGENASE / LIPASE / PHOSPHORUS / POTASSIUM / SODIUM / TOTAL BILIRUBIN / TOTAL PROTEIN / URIC ACID: tissue Plasma
[1] = 3 mg/kg, 120 h, dose level Low, time 5 day
[2] = 110 mg/kg, 72 h, dose level High, time 3 day
[3] = 110 mg/kg, 120 h, dose level High, time 5 day

SMILES: Cc1cccc(Nc2ccncc2S(=O)(=O)NC(=O)NC(C)C)c1 [TORSEMIDE]
- ABSOLUTE BASOPHIL [1]: 0 CELLS/uL
- ABSOLUTE EOSINOPHIL [1]: 64 CELLS/uL
- ABSOLUTE LYMPHOCYTE [1]: 7502 CELLS/uL
- ABSOLUTE MONOCYTE [1]: 142 CELLS/uL
- ABSOLUTE SEGMENTED NEUTROPHIL [1]: 525.33 CELLS/uL
- BASOPHIL [1]: 0%
- EOSINOPHIL [1]: 0.67%
- ERYTHROCYTE COUNT [1]: 5.57 x10E6/uL
- HEMATOCRIT [1]: 35.4%
- HEMOGLOBIN [1]: 13.63 G/DL
- LEUKOCYTE COUNT [1]: 8.23 x10E3/uL
- LYMPHOCYTE [1]: 91.33%
- MEAN CORPUSCULAR HEMOGLOBIN [1]: 24.57 pg
- MEAN CORPUSCULAR HEMOGLOBIN CONCENTRATION [1]: 38.5 G/DL
- MEAN CORPUSCULAR VOLUME [1]: 63.67 fL
- MONOCYTE [1]: 1.67%
- NEUTROPHIL [1]: 6.33%
- NUCLEATED RED BLOOD CELLS [1]: 0 /100WBC
- PLATELET COUNT [1]: 1174 x10E3/uL
- ALANINE AMINOTRANSFERASE [1]: 54.67 u/L
- ALBUMIN [1]: 4 G/DL
- ALKALINE PHOSPHATASE [1]: 376.67 u/L
- ASPARTATE AMINOTRANSFERASE [1]: 76 u/L
- BLOOD UREA NITROGEN [1]: 11.67 mg/dL
- CARBON DIOXIDE [1]: 31.33 mmol/L
- CHLORIDE [1]: 100 MEQ/L
- CHOLESTEROL [1]: 63.67 mg/dL
- CREATINE PHOSPHOKINASE [1]: 293.67 u/L
- CREATININE [1]: 0.14 mg/dL
- GLUCOSE [1]: 148.67 mg/dL
- LACTATE DEHYDROGENASE [1]: 190.33 u/L
- LIPASE [1]: 10.33 u/L
- PHOSPHORUS [1]: 11.3 mg/dL
- POTASSIUM [1]: 6.36 MEQ/L
- SODIUM [1]: 144.87 MEQ/L
- TOTAL BILIRUBIN [1]: 0.17 mg/dL
- TOTAL PROTEIN [1]: 6.03 G/DL
- URIC ACID [1]: 0.47 mg/dL
- ABSOLUTE BASOPHIL [2]: 0 CELLS/uL
- ABSOLUTE EOSINOPHIL [2]: 0 CELLS/uL
- ABSOLUTE LYMPHOCYTE [2]: 16133.33 CELLS/uL
- ABSOLUTE MONOCYTE [2]: 63.33 CELLS/uL
- ABSOLUTE SEGMENTED NEUTROPHIL [2]: 1136.67 CELLS/uL
- BASOPHIL [2]: 0%
- EOSINOPHIL [2]: 0%
- ERYTHROCYTE COUNT [2]: 5.8 x10E6/uL
- HEMATOCRIT [2]: 36.3%
- HEMOGLOBIN [2]: 14.23 G/DL
- LEUKOCYTE COUNT [2]: 17.33 x10E3/uL
- LYMPHOCYTE [2]: 93.33%
- MEAN CORPUSCULAR HEMOGLOBIN [2]: 24.53 pg
- MEAN CORPUSCULAR HEMOGLOBIN CONCENTRATION [2]: 39.23 G/DL
- MEAN CORPUSCULAR VOLUME [2]: 62.57 fL
- MONOCYTE [2]: 0.33%
- NEUTROPHIL [2]: 6.33%
- NUCLEATED RED BLOOD CELLS [2]: 0 /100WBC
- PLATELET COUNT [2]: 1008.33 x10E3/uL
- ALANINE AMINOTRANSFERASE [2]: 60.33 u/L
- ALBUMIN [2]: 4.17 G/DL
- ALKALINE PHOSPHATASE [2]: 282 u/L
- ASPARTATE AMINOTRANSFERASE [2]: 86 u/L
- BLOOD UREA NITROGEN [2]: 29.33 mg/dL
- CARBON DIOXIDE [2]: 33.33 mmol/L
- CHLORIDE [2]: 93.33 MEQ/L
- CHOLESTEROL [2]: 69.33 mg/dL
- CREATINE PHOSPHOKINASE [2]: 98.67 u/L
- CREATININE [2]: 0.32 mg/dL
- GLUCOSE [2]: 148 mg/dL
- LACTATE DEHYDROGENASE [2]: 104.67 u/L
- LIPASE [2]: 12 u/L
- PHOSPHORUS [2]: 8.13 mg/dL
- POTASSIUM [2]: 5.2 MEQ/L
- SODIUM [2]: 142.37 MEQ/L
- TOTAL BILIRUBIN [2]: 0.2 mg/dL
- TOTAL PROTEIN [2]: 5.37 G/DL
- URIC ACID [2]: 1.2 mg/dL
- ABSOLUTE BASOPHIL [3]: 0 CELLS/uL
- ABSOLUTE EOSINOPHIL [3]: 0 CELLS/uL
- ABSOLUTE LYMPHOCYTE [3]: 12824.33 CELLS/uL
- ABSOLUTE MONOCYTE [3]: 353.67 CELLS/uL
- ABSOLUTE SEGMENTED NEUTROPHIL [3]: 788.67 CELLS/uL
- BASOPHIL [3]: 0%
- EOSINOPHIL [3]: 0%
- ERYTHROCYTE COUNT [3]: 6.15 x10E6/uL
- HEMATOCRIT [3]: 38.4%
- HEMOGLOBIN [3]: 14.97 G/DL
- LEUKOCYTE COUNT [3]: 13.97 x10E3/uL
- LYMPHOCYTE [3]: 92%
- MEAN CORPUSCULAR HEMOGLOBIN [3]: 24.37 pg
- MEAN CORPUSCULAR HEMOGLOBIN CONCENTRATION [3]: 38.97 G/DL
- MEAN CORPUSCULAR VOLUME [3]: 62.5 fL
- MONOCYTE [3]: 2.33%
- NEUTROPHIL [3]: 5.67%
- NUCLEATED RED BLOOD CELLS [3]: 0.33 /100WBC
- PLATELET COUNT [3]: 1188.33 x10E3/uL
- ALANINE AMINOTRANSFERASE [3]: 70 u/L
- ALBUMIN [3]: 4.5 G/DL
- ALKALINE PHOSPHATASE [3]: 395.67 u/L
- ASPARTATE AMINOTRANSFERASE [3]: 104 u/L
- BLOOD UREA NITROGEN [3]: 29 mg/dL
- CARBON DIOXIDE [3]: 38.33 mmol/L
- CHLORIDE [3]: 86.33 MEQ/L
- CHOLESTEROL [3]: 65.33 mg/dL
- CREATINE PHOSPHOKINASE [3]: 234.67 u/L
- CREATININE [3]: 0.3 mg/dL
- GLUCOSE [3]: 176 mg/dL
- LACTATE DEHYDROGENASE [3]: 220.33 u/L
- LIPASE [3]: 10.67 u/L
- PHOSPHORUS [3]: 8.93 mg/dL
- POTASSIUM [3]: 4.3 MEQ/L
- SODIUM [3]: 142.87 MEQ/L
- TOTAL BILIRUBIN [3]: 0.1 mg/dL
- TOTAL PROTEIN [3]: 6.83 G/DL
- URIC ACID [3]: 0.6 mg/dL
